Experimental data from the NIST ThermoML archive (doi:10.1021/je900210h).
Several values for one entry are separate records, joined by “and”; a condition that tells them apart may be missing. Equal values may be shown once.

Details: Fluid (supercritical or subcritical phases), Coaxial cylinder method

FCC(F)(F)F [1,1,1,2-tetrafluoroethane]
Details | thermal conductivity
377.87 K, 4339 kPa | 0.0617 W/m/K
377.87 K, 4470 kPa | 0.0614 W/m/K
377.87 K, 4479 kPa | 0.0606 W/m/K
377.89 K, 4330 kPa | 0.0583 W/m/K
377.89 K, 4518 kPa | 0.0587 W/m/K
377.89 K, 4531 kPa | 0.0582 W/m/K
377.9 K, 4541 kPa | 0.0575 W/m/K
377.9 K, 4551 kPa | 0.057 W/m/K
377.9 K, 4561 kPa | 0.0566 W/m/K
377.9 K, 4582 kPa | 0.0563 W/m/K
377.91 K, 4321 kPa | 0.0557 W/m/K
377.93 K, 4309 kPa | 0.0521 W/m/K
377.93 K, 4800 kPa | 0.0547 W/m/K
377.93 K, 4851 kPa | 0.0547 W/m/K
377.95 K, 4301 kPa | 0.0503 W/m/K
377.96 K, 6000 kPa | 0.0569 W/m/K
377.97 K, 4302 kPa | 0.0487 W/m/K
378.02 K, 4500 kPa | 0.0601 W/m/K
378.05 K, 7003 kPa | 0.0589 W/m/K
378.07 K, 180 kPa | 0.02003 W/m/K
378.07 K, 6502 kPa | 0.058 W/m/K
378.11 K, 5504 kPa | 0.056 W/m/K
378.16 K, 8004 kPa | 0.0605 W/m/K
378.18 K, 7450 kPa | 0.0597 W/m/K
378.24 K, 10507 kPa | 0.064 W/m/K
378.25 K, 4395 kPa | 0.0667 W/m/K
378.25 K, 4400 kPa | 0.0667 W/m/K
378.25 K, 9919 kPa | 0.0632 W/m/K
378.25 K, 21005 kPa | 0.0736 W/m/K
378.26 K, 4380 kPa | 0.0657 W/m/K
378.26 K, 4390 kPa | 0.0664 W/m/K
378.26 K, 4410 kPa | 0.0667 W/m/K
378.26 K, 4420 kPa | 0.0661 W/m/K
378.26 K, 4430 kPa | 0.0655 W/m/K
378.26 K, 9506 kPa | 0.0627 W/m/K
378.27 K, 4370 kPa | 0.0645 W/m/K
378.27 K, 4440 kPa | 0.0645 W/m/K
378.27 K, 4450 kPa | 0.0639 W/m/K
378.27 K, 4460 kPa | 0.0633 W/m/K
378.27 K, 9008 kPa | 0.062 W/m/K
378.27 K, 18500 kPa | 0.0716 W/m/K
378.28 K, 4360 kPa | 0.0622 W/m/K
378.28 K, 4470 kPa | 0.0625 W/m/K
378.28 K, 4480 kPa | 0.0616 W/m/K
378.29 K, 4350 kPa | 0.0597 W/m/K
378.29 K, 4490 kPa | 0.0611 W/m/K
378.29 K, 4500 kPa | 0.0608 W/m/K
378.29 K, 4510 kPa | 0.0603 W/m/K
378.29 K, 4520 kPa | 0.0601 W/m/K
378.29 K, 4530 kPa | 0.0598 W/m/K
378.29 K, 8408 kPa | 0.0612 W/m/K
378.29 K, 16500 kPa | 0.0701 W/m/K
378.3 K, 4540 kPa | 0.0595 W/m/K
378.3 K, 4550 kPa | 0.0593 W/m/K
378.3 K, 4570 kPa | 0.0588 W/m/K
378.3 K, 4590 kPa | 0.0585 W/m/K
378.31 K, 4340 kPa | 0.057 W/m/K
378.31 K, 4620 kPa | 0.0581 W/m/K
378.31 K, 4626 kPa | 0.0578 W/m/K
378.31 K, 4650 kPa | 0.0573 W/m/K
378.31 K, 4688 kPa | 0.0571 W/m/K
378.31 K, 4730 kPa | 0.0569 W/m/K
378.31 K, 14505 kPa | 0.0683 W/m/K
378.32 K, 4770 kPa | 0.0567 W/m/K
378.33 K, 4330 kPa | 0.0547 W/m/K
378.33 K, 13441 kPa | 0.0674 W/m/K
378.34 K, 12420 kPa | 0.0663 W/m/K
378.35 K, 4320 kPa | 0.0524 W/m/K
378.36 K, 4310 kPa | 0.0506 W/m/K
378.36 K, 11376 kPa | 0.065 W/m/K
378.37 K, 10981 kPa | 0.0646 W/m/K
378.38 K, 4300 kPa | 0.0488 W/m/K
378.4 K, 4290 kPa | 0.0472 W/m/K
378.41 K, 4280 kPa | 0.0461 W/m/K
378.43 K, 4260 kPa | 0.0438 W/m/K
378.45 K, 4240 kPa | 0.0422 W/m/K
378.47 K, 4220 kPa | 0.0408 W/m/K
378.49 K, 4200 kPa | 0.0395 W/m/K
378.5 K, 4180 kPa | 0.0385 W/m/K
378.53 K, 4140 kPa | 0.0368 W/m/K
378.53 K, 4150 kPa | 0.0371 W/m/K
378.54 K, 4130 kPa | 0.0364 W/m/K
378.59 K, 4860 kPa | 0.0565 W/m/K
378.59 K, 4900 kPa | 0.0565 W/m/K
378.63 K, 440 kPa | 0.02017 W/m/K
378.74 K, 180 kPa | 0.02012 W/m/K
378.81 K, 4120 kPa | 0.036 W/m/K
378.83 K, 4090 kPa | 0.0351 W/m/K
378.85 K, 4050 kPa | 0.0339 W/m/K
378.9 K, 330 kPa | 0.02026 W/m/K
378.9 K, 3950 kPa | 0.0317 W/m/K
379.09 K, 4452 kPa | 0.0625 W/m/K
379.09 K, 4460 kPa | 0.0627 W/m/K
379.09 K, 4464 kPa | 0.063 W/m/K
379.09 K, 4470 kPa | 0.063 W/m/K
379.09 K, 4475 kPa | 0.063 W/m/K
379.09 K, 4484 kPa | 0.063 W/m/K
379.09 K, 4500 kPa | 0.0627 W/m/K
379.1 K, 4331 kPa | 0.0441 W/m/K
379.17 K, 300 kPa | 0.02023 W/m/K
379.22 K, 4504 kPa | 0.0628 W/m/K
379.23 K, 4452 kPa | 0.0608 W/m/K
379.23 K, 4453 kPa | 0.0614 W/m/K
379.23 K, 4520 kPa | 0.062 W/m/K
379.23 K, 4530 kPa | 0.0615 W/m/K
379.24 K, 4540 kPa | 0.0609 W/m/K
379.24 K, 4547 kPa | 0.0606 W/m/K
379.24 K, 4560 kPa | 0.0601 W/m/K
379.24 K, 4570 kPa | 0.0599 W/m/K
379.25 K, 4442 kPa | 0.0593 W/m/K
379.25 K, 4600 kPa | 0.0591 W/m/K
379.25 K, 4620 kPa | 0.0587 W/m/K
379.25 K, 4642 kPa | 0.0584 W/m/K
379.26 K, 4431 kPa | 0.0573 W/m/K
379.26 K, 4662 kPa | 0.0579 W/m/K
379.26 K, 4680 kPa | 0.0577 W/m/K
379.26 K, 4703 kPa | 0.0575 W/m/K
379.26 K, 4739 kPa | 0.0573 W/m/K
379.26 K, 4766 kPa | 0.0573 W/m/K
379.26 K, 4806 kPa | 0.057 W/m/K
379.27 K, 4424 kPa | 0.0559 W/m/K
379.28 K, 4414 kPa | 0.0545 W/m/K
379.29 K, 4404 kPa | 0.053 W/m/K
379.3 K, 4396 kPa | 0.0516 W/m/K
379.32 K, 4386 kPa | 0.0501 W/m/K
379.33 K, 4376 kPa | 0.0487 W/m/K
379.34 K, 4369 kPa | 0.0478 W/m/K
379.36 K, 4355 kPa | 0.0462 W/m/K
379.37 K, 4346 kPa | 0.0453 W/m/K
379.39 K, 4330 kPa | 0.0437 W/m/K
379.4 K, 4309 kPa | 0.0422 W/m/K
379.4 K, 4317 kPa | 0.0427 W/m/K
379.4 K, 4838 kPa | 0.0567 W/m/K
379.4 K, 4888 kPa | 0.0562 W/m/K
379.41 K, 4932 kPa | 0.0558 W/m/K
379.41 K, 5000 kPa | 0.0554 W/m/K
379.41 K, 5051 kPa | 0.055 W/m/K
379.42 K, 4288 kPa | 0.0408 W/m/K
379.43 K, 150 kPa | 0.02035 W/m/K
379.43 K, 154 kPa | 0.0231 W/m/K
379.43 K, 4282 kPa | 0.0405 W/m/K
379.45 K, 4254 kPa | 0.0389 W/m/K
379.47 K, 4224 kPa | 0.0376 W/m/K
379.48 K, 4200 kPa | 0.0367 W/m/K
379.5 K, 4165 kPa | 0.0355 W/m/K
379.5 K, 4175 kPa | 0.0358 W/m/K
379.72 K, 160 kPa | 0.01996 W/m/K
381.53 K, 4627 kPa | 0.0551 W/m/K
381.53 K, 4640 kPa | 0.0555 W/m/K
381.53 K, 4650 kPa | 0.056 W/m/K
381.53 K, 4660 kPa | 0.0562 W/m/K
381.53 K, 4670 kPa | 0.0565 W/m/K
381.53 K, 4680 kPa | 0.0565 W/m/K
381.54 K, 4700 kPa | 0.0562 W/m/K
381.54 K, 4760 kPa | 0.056 W/m/K
381.55 K, 4612 kPa | 0.0542 W/m/K
381.55 K, 4780 kPa | 0.0558 W/m/K
381.55 K, 4800 kPa | 0.0555 W/m/K
381.55 K, 4815 kPa | 0.0553 W/m/K
381.56 K, 4600 kPa | 0.0536 W/m/K
381.56 K, 4830 kPa | 0.0551 W/m/K
381.56 K, 4860 kPa | 0.0549 W/m/K
381.56 K, 4900 kPa | 0.0542 W/m/K
381.56 K, 4920 kPa | 0.0542 W/m/K
381.56 K, 4950 kPa | 0.0543 W/m/K
381.56 K, 4982 kPa | 0.0543 W/m/K
381.56 K, 5016 kPa | 0.0543 W/m/K
381.56 K, 5068 kPa | 0.0543 W/m/K
381.57 K, 5092 kPa | 0.0539 W/m/K
381.57 K, 5125 kPa | 0.0538 W/m/K
381.57 K, 5136 kPa | 0.0538 W/m/K
381.57 K, 5169 kPa | 0.0536 W/m/K
381.57 K, 5201 kPa | 0.0536 W/m/K
381.58 K, 4569 kPa | 0.0518 W/m/K
381.6 K, 4530 kPa | 0.0495 W/m/K
381.61 K, 4516 kPa | 0.0483 W/m/K
381.61 K, 4520 kPa | 0.0487 W/m/K
381.61 K, 4525 kPa | 0.049 W/m/K
381.62 K, 4510 kPa | 0.0478 W/m/K
381.63 K, 4490 kPa | 0.0464 W/m/K
381.63 K, 4500 kPa | 0.0472 W/m/K and 0.0468 W/m/K
385.18 K, 4940 kPa | 0.0522 W/m/K
